Test results as given in patent publication US20260250247A1, “NOVEL INDOLINE DERIVATIVE AND USE THEREOF” (CK REGEON INC., priority 2023, published 2026).

Experiments:
[1] = tested on: β-catenin and CXXC5 in liver tissue; assay: Liver immunohistochemistry of β-catenin and CXXC5 in MASH mice; type: in vivo, C57BL/6N mice; details: 25 mg/kg/day orally for 4 weeks
Experimental: (§1) Five-week-old wild-type male C57BL/6N mice were purchased from Orient Bio Co., Ltd. They were allowed to acclimate to the laboratory environment for one week. Mice weighing 18-20 g on average were used in the experiment. To ensure ethical and scientific validity and efficient management of animal experiments, the experiment was conducted with the approval of the Institutional Review Board (IACUC-A-202205-1472-01) of Severance Hospital, Yonsei University College of Medicine.
(§2) The mice were divided into a normal group (NCD) and a high-fat diet group (HFD). The normal group (NCD) was fed a normal chow diet (NCD, Teklad Global 18% protein rodent diet), and the high-fat diet group (HFD) was fed a high-fat diet (HFD, D12492) in which fat accounted for 60% of the total calories, for 8 weeks.
Mice induced with metabolic dysfunction-associated steatohepatitis (MASH) (hereinafter, referred to as MASH or MASH group) were prepared by administering CCl4 intraperitoneally twice a week for 4 weeks after feeding the high-fat diet (HFD) for 8 weeks. […]
The sections treated with the primary antibodies were washed with PBS and incubated with biotinylated anti-mouse (1:400; Dako) or anti-rabbit (1:400; Dako) secondary antibodies for 1 hour at room temperature. […] After the staining, images were taken and analyzed using a bright-field microscope (Nikon TE-2000U).

[2] = target: CXXC5-Dvl interaction (PDZ domain of Dvl (dishevelled) protein / PTD-DBM-FITC); assay: CXXC5-Dvl binding inhibition, competition of PTD-DBM-FITC on plate-bound Dvl PDZ domain; details: purified Dvl PDZ domain 5 μg/mL, 10 μM PTD-DBM-FITC, compounds 0.001-100 μM, FITC fluorescence
Experimental: 5 μg/mL of the purified PDZ domain ofDvl (dishevelled) protein was attached to the bottom of a 96-well black immunoplate and left in a chamber at 4° C. for one day. The next day, each well was washed with PBS and 10 μM PTD-DBM-FITC was added. After incubation at room temperature for 3 hours, each well was washed with PBS. Each well was treated with the indoline derivatives at various concentrations (100, 10, 1, 0.1, 0.01, and 0.001 μM) in 100 μL of PBS. After washing with a buffer, fluorescence was measured by FITC using a microplate reader. A competition binding curve showing the degree of CXXC5-Dvl PPI inhibition was constructed using the GraphPad Prism software, and the IC50 value was calculated. […] CK090), and the intermediate compound 5-cyanoindirubin as controls.

[3] = tested on: lipid droplets / PPARγ in liver tissue; assay: Liver Oil Red O staining and PPARγ immunohistochemistry in MASH mice; type: in vivo, C57BL/6N mice; details: 25 mg/kg/day orally for 4 weeks
Experimental: as §1, §2
Mice induced with metabolic dysfunction-associated steatohepatitis (MASH) (hereinafter, referred to as MASH or MASH group) were prepared by administering CCl4 intraperitoneally twice a week for 4 weeks after feeding the high-fat diet (HFD) for 8 weeks. The […] was diluted with corn oil at a ratio of 1:19 and injected at a dosage of 2 mL/kg. The normal group (NOD) was administered the same volume of physiological saline.
The animals were divided into 7 groups, each with 10 animals.
It was investigated whether the accumulation of triglycerides in the liver is suppressed effectively. For this purpose, liver tissue was extracted from each group, and it was prepared into 10-μm thick cryosections, which were then stained with Oil Red O. Details are as follows. After preparing the 7 groups, the animals were euthanized using carbon dioxide and the liver tissues were extracted. A certain area of the extracted liver tissue was cryosectioned to 10 μm thickness, fixed in 4% neutral paraformaldehyde for 20 minutes at room temperature, and washed with 70% isopropanol (Duksan Pure Chemicals). After staining with the Oil Red O (Sigma-Aldrich) reagent for 20 minutes, the sections were washed thoroughly three times with distilled water. The tissue was counterstained with Mayer's hematoxylin. Then, Oil Red O staining images were visualized using a bright-field microscope (Nikon TE-2000U).
After preparing the 7 groups, the animals were sacrificed using carbon dioxide and the liver tissues were extracted. The extracted tissues were fixed in 4% neutral paraformaldehyde and embedded in paraffin to prepare sections. The paraffin sections were cut to 4-μm thickness, deparaffinized, and then rehydrated. For antigen exposure, slides were autoclaved in a 10 mM sodium citrate buffer (pH 6.0). To block endogenous peroxidase activity prior to peroxidase IHC analysis, the tissues were incubated with 0.3% H2O2 for 10 minutes. The incubated sections were treated with phosphate-buffered saline (PBS) containing 10% NGS and 0.3% Tween-20 for 1 hour at room temperature, treated with primary antibodies of anti-PPARγ (1:50; Abcam), and incubated overnight at 4° C.
The sections treated with the primary antibodies were washed with PBS and incubated with biotinylated anti-mouse (1:400; Dako) or anti-rabbit (1:400; Dako) secondary antibodies for 1 hour at room temperature. The sections incubated with the secondary antibodies were stained with 3,3′-diaminobenzidine (DAB; Dako) for 3-7 minutes and then counterstained with Mayer's haematoxylin. All incubations were performed in a humid chamber. After the staining, images were taken and analyzed using a bright-field microscope (Nikon TE-2000U).

N#Cc1ccc2c(c1)/C(=C1/Nc3ccccc3C1=O)C(=O)N2 [5-cyanoindirubin]
β-catenin expression in liver, immunohistochemical staining [1]: no significant difference from the MASH group (vehicle) | IC50 [2]: 11.1 µM | lipid droplet formation and lipid infiltration in liver, Oil Red O staining [3]: no significant difference was observed
